Values belong to the molecule of their own block, whether it stands above or below them. Where no end group is shown, it is not given here. Side-chain parts run from the residue outwards. The star is where a group is joined. DSPE = CCCCCCCCCCCCCCCCCC(=O)OC[C@H](COP(=O)(O)OCCN*)OC(=O)CCCCCCCCCCCCCCCCC; MAL = maleimide
Legend:
[1] = Aqueous solubility, 1 mg R in 1 mL 1×PBS; type: physicochemical; settings: visual observation
[2] = Chemical stability of R by HPLC under light or dark; type: physicochemical
[3] = In vitro release, dialysis method (Example 1); type: physicochemical; settings: for R released from dialysis bag: bag containing 0.5 mg R
Method: The dissolution medium was composed of 1×PBS and methanol (80:20, v/v). […] See Sun et al., Colloids Surf B Biointerfaces, 113 (2014) 15-24.
The release study was conducted in the dark to prevent light-induced R degradation. To minimize the effect of R stability, the dissolution medium was changed completely each hour for the first 2 hr, and every 2 hr for the rest 8 hr.

3T3-L1 white adipocytes = test: Browning: marker mRNA by Real Time-PCR in differentiating adipocytes, basal or ISO-stimulated; type: cell-based, Murine
Method: The cells were then stimulated with isoproterenol (ISO) for 6 hr. Relative mRNA expression of Uncoupling protein 1 (UCP-1), PPARγ, PPARγ co-activator 1α (PGC-1α), and PR-domain-containing 16 (PRDM16) were analyzed by semi-quantitative Real Time-PCR. Data=mean±SEM (n=3). E, Ethanol containing vehicle control for native R. R, rosiglitazone, a positive control. Letters of a-c or a′-c′ on top of the bars define differences among various forms of R under either basal or ISO-stimulated conditions, respectively. Different letters indicate significant differences among various R. *, p<0.05; **, p<0.01; ***, p<0.001 compared to their controls.
The cells were then stimulated with ISO for 6 hr. Relative mRNA expression of white marker insulin-like growth factor-binding protein 3 (IGFBP3) (FIG. 9A) and beige marker CD137 and transmembrane protein 26 (Tmem26) (FIG. 9B) were analyzed by semi-quantitative reverse transcription polymerase chain reaction (RT-PCR). Data=mean±SEM (n=3). E, Ethanol containing vehicle control for native R. R, rosiglitazone, a positive control. Letters of a-c or a′-c′ on top of the bars define differences among various forms of R under both basal and ISO-stimulated conditions, respectively. Different letters indicate significant differences among various R. *, p<0.05; **, p<0.01 compared to the controls.
Total RNA was extracted, cDNA was synthesized, and real-time PCR was performed using an ABI 7300HT instrument.
The hallmark of beige adipocytes is induced thermogenesis in response to stimuli, such as […] agonist ISO.

[4] = In vitro release, dialysis method (Example 2); type: physicochemical
Method: The mean particle size, PI and zeta potential were measured every day. The in vitro release behavior was measured in the dissolution medium, which was composed of 1× phosphate buffer saline (1×PBS, pH 7.4) and methanol (80:20, v/v), using a dialysis method. […] R released into the medium at each time point was determined using the Shimadzu high-performance liquid chromatography (HPLC) system (Shimadzu Corporation, Kyoto, Japan).

obese C57BL/6J mice [5] = test: Anti-obesity study: body weight, composition, food intake, fat pads, adipocyte size; type: in vivo
Method: (§1) Sixty male 6-week old C57BL/6J mice from Jackson's lab were fed with a high-fat diet (HFD) (45% energy from fat, Research Diets, Inc, D12451) for 9 weeks starting from week 1 (age 7 weeks old) to week 9 (age 15 weeks old). The mice were allowed to drink and eat the HFD ad libitum and maintained at 22-24° C., 45% relative humidity and a daily 12/12 hour light/dark cycle. […] Treatments were intravenously injected into mice via tail veins twice a week. Food intake and body weight were recorded weekly. Glucose tolerance test (GTT) was conducted at week 8 and the insulin tolerance test (ITT) and cold tolerance test were conducted at week 9.
After 9 weeks, mice were fasted overnight and humanely sacrificed. Blood was collected from the abdominal vein and brain, liver, lung, spleen, kidneys, skeletal muscle, gonadal white adipose tissue (G-WAT), inguinal WAT (I-WAT), retroperitoneal WAT (RP-WAT), and BAT of each mouse. Each tissue was cut into 3 pieces to be immediately frozen in liquid nitrogen followed by storage at −80° C. and fixed in 4% paraformaldehyde (for histology).
Body composition of mice was performed at week 0, 2, 4 and 5 of treatments using an EchoMRI™ Whole Body Composition Analyzer (MRI system) (EchoMRI LLC, Houston, Tex., USA).
H&E staining of I-WAT was conducted by the Department of Pathology of Texas Tech University Health Sciences Center. Briefly, the paraffin-embedded I-WAT sections (5 μm) were deparaffinized and rehydrated with xylene and ethanol. Sections were cleaned with water to skim reagent residue. Excess water was then blotted, the sections were incubated with Hematoxylin for 4 minutes, and washed several times using water. The sections were stained with Eosin and dehydrated. Finally, the sections were cleaned and covered with xylene-based mounting medium.

obese C57BL/6J mice [6] = test: Fasting insulin, glucose, HOMA-IR, leptin, GTT and ITT; settings: mouse, in vivo
Method: as §1
GTT and ITT were performed at end of treatments to assess whole-body glucose and insulin tolerance. […] Blood was collected and blood glucose concentrations were measured with a One Touch® glucometer from tail vein blood at 0, 15, 30, 60, 90, and 120 minutes post-injection. […] Blood glucose concentrations were measured as above at 0, 15, 30, 45, and 60 minutes post-injection. The area under the curve (AUC) was calculated. Blood glucose concentrations were plotted against time and the area under curve was calculated by following formula: […]
Fasting plasma glucose concentrations were measured by One Touch® glucometer. Fasting insulin concentrations were determined by an insulin Millipore® ELISA commercial kit (Millipore, Billerica, Mass., USA). […]

[7] = cited from earlier work
[8] = system: primary stromal stem/progenitor cells derived from inguinal WAT (iWAT); settings: 10 μM, brown-like differentiation; cited from earlier work
[9] = target: decorin lacking the glycanation site (ΔDCN), on ΔDCN-transduced 3T3-L1 cells (ΔDCN cells); test: cell-based or functional assay
[10] = target: endogenous surface ΔDCN receptor of mouse adipose stromal cells (ASC) in C57BL/6J white adipose tissue stromal vascular cells (mouse); test: cell-based or functional assay
[11] = target: decorin lacking the glycanation site (ΔDCN), on ΔDCN-transduced 3T3-L1 cells (ΔDCN cells); test: flow cytometry of ΔDCN cells incubated 2 h at 37° C. with DiD-labelled nanoparticles

dissolution of 1 mg in 1 mL of 1×PBS [1]: hardly dissolved
R degradation rate ([2]; 4° C., dark, 7 days): 17%
R degradation rate ([2]; 22° C., dark, 7 days): 48%
R degradation rate ([2]; 37° C., dark, 7 days): 52%
R degradation rate ([2]; 37° C., under the light, 6 days): 90%
R degraded ([2]; pH 7.4, 4° C., under the light, 7 days): 40%
R degraded ([2]; pH 7.4, 22° C., under the light, 7 days): 60%
R degraded ([2]; pH 7.4, 37° C., under the light, 7 days): 96%
release behavior ([3]; 1×PBS:methanol 80:20, dark): burst release
R released from dialysis bag ([3]; 2-4 hr period): about 0.02 mg
accumulative released R mass ([3]; 10 hr period): reached a plateau
R released from dialysis bag ([3]; after 1 hr): about 0.17 mg
R release ([4]; after eight hours): undetected
R released from dialysis bag ([4]; first two hours): more than 0.13 mg
released R as share of total R ([4]; first two hours): around 35%
mass of R released at every time point ([4]; following six hours): lower than 0.02 mg
Molecule: Oc1ccc(/C=C/c2cc(O)cc(O)c2)cc1 [native R, 3,5,4′-trihydroxy-trans-stilbene]
Cox4a mRNA (3T3-L1 white adipocytes; 20 μM, ISO stimulated): increased
CD137 mRNA expression (3T3-L1 white adipocytes; ISO stimulated conditions): dose-dependently increased
Tmem26 expression (3T3-L1 white adipocytes; ISO stimulation): increased
PRDM16 mRNA expression (3T3-L1 white adipocytes; basal conditions): did not change
Tmem26 mRNA expression (3T3-L1 white adipocytes; basal conditions): decreased
IGFBP3 mRNA expression compared to controls (3T3-L1 white adipocytes; both basal and ISO stimulated conditions): dose-dependently decreased
diameter of adipocytes in I-WAT (obese C57BL/6J mice [5]; H&E sections, after 5 weeks): around 100 μm
body weight (obese C57BL/6J mice [5]; HFD mice, 15 mg/kg, IV twice a week, 5 weeks, vs saline): no significant reduction
percentage of body fat (% body fat) (obese C57BL/6J mice [5]; HFD mice, 15 mg/kg, IV twice a week, 5 weeks, vs saline, listed as Free R, 15 mg/kg): slightly lower
percentage of body fat (% body fat) (obese C57BL/6J mice [5]; HFD mice, 15 mg/kg, IV twice a week, 5 weeks, vs saline, listed as free R, 15 mg/kg): no significant reduction
body weight gain (obese C57BL/6J mice [5]; compared with saline group): decrease
adipocyte size / area of cells in I-WAT (obese C57BL/6J mice [5]; vs saline): no significant reduction
fasting blood insulin and glucose concentrations compared to saline (obese C57BL/6J mice [6]): reduced
solubility of R in water and physiological fluid [7]: less than 0.1 mg/mL
mRNA expression of UCP1 and beige marker CD137 and Tmem26 [8]: enhanced

ΔDCN cells R content at 4° C. for 4 hours, against free R and Rnano [9]: 2 fold
DiD+ ASC after intravenous injection, DiD-L-Rnano mouse against DiD-Rnano treatment (flow cytometry; depot not given, I-WAT by context) [10]: 9.3 fold
DiD+ cell ratio among the ASC population after intravenous injection of DiD-L-Rnano (flow cytometry; depot not given, I-WAT by context) [10]: 31.7%
cellular R content of SVCs at 4° C., against free R-treated SVF cells [10]: 2.8 fold
cellular R content of SVCs at 37° C., against free R-treated SVF cells [10]: 2.5 fold
percentage of DiD+ ASC in G-WAT after intravenous injection, DiD-L-Rnano mouse against DiD-Rnano mouse (flow cytometry) [10]: 3.5 fold
percentage of DiD+ ASC in RP-WAT after intravenous injection, DiD-L-Rnano mouse against DiD-Rnano mouse (flow cytometry) [10]: 4.8 fold
fold DiD positive rate of ΔDCN cells against DiD-labeled Rnano [11]: 5 fold
B1: ligand-coated Rnano (L-Rnano): resveratrol-loaded lipid nanoparticle carrying DSPE-PEG5000-peptide, the linear ASC-targeting peptide … (SEQ ID NO: 2), on its … (peptide)
peptide: GSWKYWFGEGGC([MAL-PEG5000-DSPE])
modifications: also: displayed in many copies on lipid nanoparticle, copy number not given here
